Measurements as given in patent US6506393B2, “Methods of treating protozoal diseases” (Zentaris AG, priority 1991, dated 2003).
In brackets after ≈: the same amount, converted by molar mass. Entries after “also recorded” stand apart in the source; their conditions may differ.

Legend:
[1] = system: three strains of Leishmania (L. donovani MHOM/IN/54LRC-L.51; L. donovani MHOM/IN/80/DDS and L. infantum MHOM/ES/86/STI-172); assay: Effect on pathogens in vivo: parasite burden in liver and spleen of infected Balb/c mice (Example 42)
Method: Several compounds of the invention were tested against three strains of Leishmania (L. donovani MHOM/IN/54LRC-L.51; L. donovani MHOM/IN/80/DDS and L. infantum MHOM/ES/86/STI-172). All strains were isolated from patients with visceral leishmaniasis. Before use for experiments, the strains were passed through Balb/c mice by intravenous injection.
Balb/c mice were infected by intravenous injection of a mixture of 10^7 promastigotes from stationary growth phase and 10^7 amastigotes which were isolated from the liver or spleen of leishmania-infected mice. Oral treatment with the compounds of the invention was initiated on day 7, at which time the mean parasitic burden was 100 to 200×10^6 amastigotes per liver, 1 to 2×10^6 per spleen and 3 to 6 amastigotes per microscopic field of 100 hematopoietic cells in bone marrow.
Parasite burden in spleen and liver were determined in GIEMSA's stained impression smears from cut sections by counting the number of amastigotes per 1000 spleen or liver nuclei. The total number of amastigotes per organ was calculated according to Stauber et al. (J. Protozool. 5:269-273 (1958)). Parasite suppression (parasite burden of drug treated mice to parasite burden of untreated mice) and parasite killing (parasite burden at the end of treatment to parasite burden at the start of treatment) were calculated according to Baumann et al. (Antimicrob. Agents Chemother. 35:1403-1407 (1991)) for all strains on day 14, for the strain LRC-L.51 in addition on days 21, 25 and 35 post-infectionem. The parasite burden in the bone marrow was examined on days 7 and 35 post-infectionem (strain LRC-L.51).
Table V summarizes the in vivo treatment results of several compounds of the invention in the liver and the spleen of treated mice. […] However, it is clear from the Table that the compounds of the invention produced much better results.

[2] = system: L. donovani strain MHOM/IN/54LRC-L.51 promastigotes; assay: Effect on pathogens in vitro: promastigote culture, 96 hours, counting chamber (Example 41); format: cell-based; details: 96 hours of incubation, 26° C., mean and SD of 3 experiments; for IC50: Leishmania donovani
Method: Several compounds of the invention were tested against L. donovani strain MHOM/IN/54LRC-L.51, isolated from a patient with visceral leishmaniasis. Before use for experiments, the strain was passed through Balb/c mice by intravenous injection.
Promastigotes were cultured in vitro in a mixed medium consisting of one part of HOSMEM and one part of RPMI-1640 (Gibco 041-02400) supplemented with 10% heat-inactivated fetal bovine serum (Gibco 011-06290) at 26° C. Cultures were maintained by seeding 5×10^6 promastigotes from 4-day-old cultures into 10 ml fresh medium. The promastigotes were cultured in 24-well-multiplates. After 96 hours of incubation in control or drug-containing media, the number of promastigotes was determined in a Neubauer counting chamber. The 50% inhibitory concentration was calculated graphically. The data is representative of the mean and SD values of 3 different experiments.

L. donovani [3] = assay: Effect of leishmaniasis drugs on the number of pathogens in liver and spleen of rats infected with L. donovani (Examples 39, 40); format: in vivo; details: for Pathogens per spleen (in millions): 3 week period of therapy; for Relative effectiveness (pathogens per spleen after Pentostam therapy divided by pathogens/spleen after addition of test substance): procedure as in example 39 (orally 5 × 20 mg/kg/week for 3 weeks)
L. donovani [4] = assay: as above; format: in vivo; details: for Relative effectiveness (pathogens per liver after Pentostam therapy divided by pathogens/liver after addition of test substance) / Pathogens per liver (in millions): orally 5 × 20 mg/kg/week for 3 weeks; for Pathogens per liver (in millions): rats infected with L. donovani, microscopic analysis
Method: Effect of various leishmaniasis drugs on the presence of pathogens in the liver of experimental animals (rats) infected with L. donovani.
The compounds according to the present invention and Et18OCH3 were administered orally while Pentostam was administered intravenously.
The number of pathogens per liver was determined by microscopic analysis.
The experimental procedure was as described in example 39.

Leishmania = assay: Four-week treatment period of Leishmania-infected mice (Example 43); format: in vivo
Text: In a further experiment, hexadecylphosphocholine was investigated in more detail.

[5] = in vivo, sc; cited from earlier work
[6] = procedure as in example 39 (orally 5 × 20 mg/kg/week)

Row | Compound | Parasites (× 10^6) Liver ([1]; oral treatment, dose 20 mg/kg) | Parasites (× 10^6) Spleen ([1]; oral treatment, dose 20 mg/kg) | IC50 Value [2] | Pathogens per spleen (in millions) (L. donovani [3]; [6]) | Relative effectiveness (pathogens per spleen after Pentostam therapy divided by pathogens/spleen after addition of test substance) (L. donovani [3]) | Pathogens per liver (in millions) (L. donovani [4]) | IC50 [2] | also measured
1 | CCCCCCCCCCCCCCCCCCOP(=O)([O-])OCC[N+]1(C)CCCC1 [Example 19, Octadecylphospho-(N-methyl)-pyrrolidino-ethyl ester] | 22 × 10^6 | 0.035 × 10^6 | 3.59 ± 0.19 µg/mL (≈ 7.78 µM) |  |  |  |  | 
2 | CCCCCCCCCCCCCCCCCCOP(=O)([O-])OCC[N+](C)(C)C [Example 2, Octadecylphosphocholine] | 0.07 × 10^6 | 0.015 × 10^6 |  | 0.01 millions | 630.0 | 0.1 millions | 0.8 ± 0.2 µg/mL (≈ 1.84 µM) | Relative effectiveness (pathogens per liver after Pentostam therapy divided by pathogens/liver after addition of test substance) (L. donovani [4]): 32.0
3 | octadecylphosphoethanol-(N-methyl)piperidine | 65 × 10^6 | 0.35 × 10^6 | 4.90 ± 0.50 µg/mL |  |  |  |  | 
4 | CCCCCCCC/C=C/CCCCCCCCOP(=O)([O-])OCC[N+](C)(C)C [Example 4, Elaidylphosphocholine] | 28 × 10^6 | 0.02 × 10^6 |  |  |  |  | 0.41 ± 0.14 µg/mL (≈ 0.946 µM) | 
5 | O.O.O.O.O.O.O.O.O.O=C([O-])[C@@H]1[O][Sb]2([O-])([O][Sb]34([OH])[O][C@H]([C@H](O)CO)[C@H]([O]3)[C@H](C(=O)[O-])[O]4)[O][C@H]([C@H](O)CO)[C@@H]1[O]2.[Na+].[Na+].[Na+] [Pentostam, sodium stibogluconate, reference compound] |  |  |  |  |  |  |  | Pathogens per spleen (in millions) (L. donovani [3]; procedure as in example 39 (Pentostam iv. 5 × 120 mg/kg/week), 120 mg/kg): weak effect; also recorded: extremely low effectiveness; Suppression of parasite growth in the spleen compared to control mice (Leishmania; spleen, Pentostam): only a moderate suppression of parasite growth; Parasites (× 10^6) Liver ([1]; Pentostam, dose 120 mg/kg): significantly reduced the parasite burden; Parasites (× 10^6) Spleen ([1]; Pentostam, dose 120 mg/kg): significantly reduced the parasite burden
6 | CCCCCCCC/C=C\CCCCCCCCOP(=O)([O-])OCC[N+](CC)(CC)CC [cis-9-octadecenylphospho-(N,N-diethyl,N-ethylamino)ethanol] | 6 × 10^6 | 0.03 × 10^6 | 0.66 ± 0.24 µg/mL (≈ 1.39 µM) |  |  |  |  | 
7 | CCCCCCCCCCCCCCCCOP(=O)([O-])OCC[N+](C)(C)C [Example 1, Hexadecylphosphocholine] | 0.07 × 10^6 | 0.008 × 10^6 |  | 0.01 millions |  | 0.1 millions | 2.07 ± 0.23 µg/mL (≈ 5.08 µM) | Toxicity for the experimental animals, in particular for macrophages [5]: highly toxic; Parasites microscopically detectable (L. donovani [3]; several additional experiments (Example 40, spleen), single oral dose of 200 mg): no longer microscopically detectable; Parasites microscopically detectable in the liver and in the spleen (L. donovani [4]; additional experiments, single oral dose of 200 mg): no longer microscopically detectable; Spleen Weight (Leishmania; Leishmania-infected mice, 10 mg (oral)): 150 mg; Reduction of parasites in the spleen (Leishmania; spleen, oral treatment with 20 mg/kg): more than three log rank reduction of parasites
8 | CCCCCCCC/C=C\CCCCCCCCOP(=O)([O-])OCC[N+](C)(C)CC [Example 7, Oleylphospho-(N.N-dimethyl-N-ethyl)ethanolamine] |  |  |  | 0.03 millions | 210.0 | 4.7 millions |  | Relative effectiveness (pathogens per liver after Pentostam therapy divided by pathogens/liver after addition of test substance) (L. donovani [4]; 20 mg/kg): 0.7; Relative effectiveness (pathogens per liver after Pentostam therapy divided by pathogens/liver after addition of test substance) (L. donovani [4]; listed as olely-phospho-(N.N-dimethyl-N-ethyl)ethanolamine, 20 mg/kg): comparable effect to Pentostam
9 | CCCCCCCC/C=C\CCCCCCCCOP(=O)([O-])OCC[N+](C)(CC)CC [Example 20, Oleylphospho-(N.N-diethyl-N-methyl)-ethanolamine] | 55 × 10^6 | 3.8 × 10^6 | 2.80 ± 0.50 µg/mL (≈ 6.06 µM) |  |  |  |  | 
10 | CCCCCCCCCCCCCCCCCCOCC(COP(=O)([O-])OCC[N+](C)(C)C)OC (racemic) [Et18OCH3, 1-octadecyl-2-methyl-rac-glycero-3-phosphocholine, reference compound] |  |  |  | 6.5 millions | 0.9 | 424.7 millions |  | Relative effectiveness (pathogens per liver after Pentostam therapy divided by pathogens/liver after addition of test substance) (L. donovani [4]): 0.007
